Assay results published in patent publication US20080039422A1, “Vitamin B12-Containing Compositions and Methods of Use” (Transition Therapeutics Inc., priority 2004, published 2008).

Assays:
Assay type in all cases: physicochemical
[1] = Drug substance properties; conditions: 10 mg/ml aqueous solution
Experimental: Cyanocobalamin (CN-Cbl) is a cobalt containing vitamin and is reported to be sparingly soluble in water in the order of 1:80 or ˜12.5 mg/ml (Merck Index 1996). […] The material appears as dark red crystals or as an amorphous or crystalline red powder. It has a melting point of 300° C. and a molecular weight of 1355.38. The pH of a 10 mg/ml aqueous solution is 5.02.

[2] = Effects of temperature of heating solution on long-term stability
Experimental: To study the effect of temperature, in some experiments, the solutions were heated to only 37° C. for 15 minutes (unless otherwise noted, the solutions were prepared as described above: by heating them to 60° C. for two hours, with additional mixing by vortexing carried out for 5-10 seconds every 5-10 minutes).
The effect of heating the solutions to different temperatures on long-term stability was tested. Solutions challenged with 50 or 75 mg/ml CN-Cbl containing 20% ethanol and 20-40% propylene glycol that were prepared at 60° C. and 37° C. were compared. The concentrations of CN-Cbl in solutions prepared at 60° C. were measured after three days, and the concentrations of CN-Cbl in solutions prepared at 37° C. were measured after two weeks. No significant difference was found in the concentrations of CN-Cbl in these solutions when the challenge amount was 50 mg/ml and only a slight difference when the challenge amount was 75 mg/ml. Solutions challenged with either 50 or 75 mg/ml CN-Cbl and containing ethanol and/or propylene glycol were heated to 37° C. (in which case, the concentration of CN-Cbl was measured after two weeks incubation at room temperature) or 60° C. (in which case, the concentration of CN-Cbl was measured after three days incubation at room temperature). Additional information regarding stability was obtained in the experiments described below.

[3] = Stability of CN-Cbl solutions stored at room temperature (3 days, 2 weeks); conditions: for Conc of CN-Cbl: After 2 weeks at Room Temperature; for concentration of CN-Cbl: After 3 days at Room Temperature, challenge 50 mg/ml
Experimental: To determine the stability of the various solutions, the clarified stocks were aliquoted into fresh tubes and stored at room temperature, protected from light, for up to two weeks. Prior to measuring the concentrations of CN-Cbl on subsequent occasions, the tubes were centrifuged for ten minutes at rcf 16,100. The concentration of CN-Cbl was measured as described above by spectrophotometry.
In the experiments described above, the concentration of CN-Cbl was measured within an hour or two after the components of the solutions were initially combined. To determine the stability of the preparations, the concentrations of CN-Cbl were measured in individual excipients after three days and the concentrations of CN-Cbl in combined excipients were measured after two weeks. Tables 3A-3B are tables showing the concentrations of CN-Cbl (mg/ml) in various solutions after three days incubation at room temperature. Solutions containing 0-60% propylene glycol (Table 3A) and solutions containing 0-40% ethanol (Table 3B) were challenged with 50, 75, 100, and 125 mg/ml CN-Cbl. Table 4 is a table showing the concentrations of CN-Cbl in excipients containing ethanol and propylene glycol after two weeks incubation at room temperature. The solutions were challenged with either 50 or 75 mg/ml CN-Cbl and the excipients contained ethanol (10, 15, or 20%) and propylene glycol (20, 30, or 40%). […] Regardless of the diminution in concentration over time, however, it was hypothesized that the initial concentrations of CN-Cbl could be restored with an additional application of energy (e.g., mixing, heating, or both mixing and heating; see below).

pH of aqueous solution [1]: 5.02
Conc of CN-Cbl ([2]; heated to 37 degrees, After 2 weeks at Room Temperature, challenge 50 mg/mL, ethanol 20%, PG 20%): 47080 µg/mL
Conc of CN-Cbl ([2]; heated to 37 degrees, After 2 weeks at Room Temperature, challenge 50 mg/mL, ethanol 20%, PG 30%): 49780 µg/mL
Conc of CN-Cbl ([2]; heated to 37 degrees, After 2 weeks at Room Temperature, challenge 50 mg/mL, ethanol 20%, PG 40%): 49870 µg/mL
Conc of CN-Cbl ([2]; heated to 37 degrees, After 2 weeks at Room Temperature, challenge 75 mg/mL, ethanol 20%, PG 20%): 38390 µg/mL
Conc of CN-Cbl ([2]; heated to 37 degrees, After 2 weeks at Room Temperature, challenge 75 mg/mL, ethanol 20%, PG 30%): 59620 µg/mL
Conc of CN-Cbl ([2]; heated to 37 degrees, After 2 weeks at Room Temperature, challenge 75 mg/mL, ethanol 20%, PG 40%): 75820 µg/mL
Conc of CN-Cbl ([2]; heated to 60 degrees, After 3 days at Room Temperature, challenge 50 mg/mL, ethanol 0%, PG 0%): 12850 µg/mL
Conc of CN-Cbl ([2]; heated to 60 degrees, After 3 days at Room Temperature, challenge 50 mg/mL, ethanol 20%, PG 0%): 24410 µg/mL
Conc of CN-Cbl ([2]; heated to 60 degrees, After 3 days at Room Temperature, challenge 50 mg/mL, ethanol 20%, PG 10%): 32320 µg/mL
Conc of CN-Cbl ([2]; heated to 60 degrees, After 3 days at Room Temperature, challenge 50 mg/mL, ethanol 20%, PG 20%): 49870 µg/mL
Conc of CN-Cbl ([2]; heated to 60 degrees, After 3 days at Room Temperature, challenge 50 mg/mL, ethanol 20%, PG 30%): 48330 µg/mL
Conc of CN-Cbl ([2]; heated to 60 degrees, After 3 days at Room Temperature, challenge 50 mg/mL, ethanol 20%, PG 40%): 50360 µg/mL
Conc of CN-Cbl ([2]; heated to 60 degrees, After 3 days at Room Temperature, challenge 75 mg/mL, ethanol 0%, PG 0%): 14010 µg/mL
Conc of CN-Cbl ([2]; heated to 60 degrees, After 3 days at Room Temperature, challenge 75 mg/mL, ethanol 20%, PG 0%): 24410 µg/mL
Conc of CN-Cbl ([2]; heated to 60 degrees, After 3 days at Room Temperature, challenge 75 mg/mL, ethanol 20%, PG 10%): 30100 µg/mL
Conc of CN-Cbl ([2]; heated to 60 degrees, After 3 days at Room Temperature, challenge 75 mg/mL, ethanol 20%, PG 20%): 60780 µg/mL
Conc of CN-Cbl ([2]; heated to 60 degrees, After 3 days at Room Temperature, challenge 75 mg/mL, ethanol 20%, PG 30%): 76600 µg/mL
Conc of CN-Cbl ([2]; heated to 60 degrees, After 3 days at Room Temperature, challenge 75 mg/mL, ethanol 20%, PG 40%): 74280 µg/mL
Conc of CN-Cbl ([3]; challenge 50 mg/mL, ethanol 10%, PG 20% (v/v)): 26680 µg/mL
Conc of CN-Cbl ([3]; challenge 50 mg/mL, ethanol 10%, PG 30% (v/v)): 39460 µg/mL
Conc of CN-Cbl ([3]; challenge 50 mg/mL, ethanol 10%, PG 40% (v/v)): 50650 µg/mL
Conc of CN-Cbl ([3]; challenge 50 mg/mL, ethanol 15%, PG 20% (v/v)): 48720 µg/mL
Conc of CN-Cbl ([3]; challenge 50 mg/mL, ethanol 15%, PG 30% (v/v)): 49780 µg/mL
Conc of CN-Cbl ([3]; challenge 50 mg/mL, ethanol 15%, PG 40% (v/v)): 49390 µg/mL
Conc of CN-Cbl ([3]; challenge 50 mg/mL, ethanol 20%, PG 20% (v/v)): 47080 µg/mL
Conc of CN-Cbl ([3]; challenge 50 mg/mL, ethanol 20%, PG 30% (v/v)): 49780 µg/mL
Conc of CN-Cbl ([3]; challenge 50 mg/mL, ethanol 20%, PG 40% (v/v)): 49870 µg/mL
Conc of CN-Cbl ([3]; challenge 75 mg/mL, ethanol 10%, PG 20% (v/v)): 26910 µg/mL
Conc of CN-Cbl ([3]; challenge 75 mg/mL, ethanol 10%, PG 30% (v/v)): 35210 µg/mL
Conc of CN-Cbl ([3]; challenge 75 mg/mL, ethanol 10%, PG 40% (v/v)): 55660 µg/mL
Conc of CN-Cbl ([3]; challenge 75 mg/mL, ethanol 15%, PG 20% (v/v)): 33280 µg/mL
Conc of CN-Cbl ([3]; challenge 75 mg/mL, ethanol 15%, PG 30% (v/v)): 43310 µg/mL
Conc of CN-Cbl ([3]; challenge 75 mg/mL, ethanol 15%, PG 40% (v/v)): 74280 µg/mL
Conc of CN-Cbl ([3]; challenge 75 mg/mL, ethanol 20%, PG 20% (v/v)): 38390 µg/mL
Conc of CN-Cbl ([3]; challenge 75 mg/mL, ethanol 20%, PG 30% (v/v)): 59620 µg/mL
Conc of CN-Cbl ([3]; challenge 75 mg/mL, ethanol 20%, PG 40% (v/v)): 75820 µg/mL
concentration of CN-Cbl ([3]; PG 0% v/v): 13600 µg/mL
concentration of CN-Cbl ([3]; PG 10% v/v): 19500 µg/mL
concentration of CN-Cbl ([3]; PG 20% v/v): 25300 µg/mL
concentration of CN-Cbl ([3]; PG 30% v/v): 31000 µg/mL
concentration of CN-Cbl ([3]; PG 40% v/v): 50000 µg/mL
concentration of CN-Cbl ([3]; PG 50% v/v): 49900 µg/mL
Substance: cyanocobalamin [CN-Cbl]
